From patent US7422848B2, “Hepatitis-B viral variants with reduced susceptibility to nucleoside analogs and uses thereof” (priority 2005, dated 2008)
“Also recorded” adds a separate entry of the source.

What was measured:
HBV [1] = experiment: Example 3: second patient, antiviral therapy of HBV infection (HBV DNA, ALT, AST); format: in vivo, human; conditions: lamivudine (Zeffix) 100 mg/day; before breakthrough
Excerpt: A person is a patient with HBsAg (+) and Anti-HBe (+).

wild type HBV = experiment: HBV replication in transiently transfected Huh7 cell lines (Real-time PCR), wild type HBV; conditions: supernatant at end of 5th day
HBV [2] = experiment: Published clinical studies of ADF (Perrillo 2004, Peters 2004, Angus 2003, Yang 2003); conditions: ADF added to the therapy; implied from cited studies
HBV [3] = conditions: human, in vivo; cited from earlier work
HBV [4] = experiment: Case study patient: antiviral therapy of chronic HBV infection (HBV DNA, ALT); format: in vivo, human; conditions: patient after clinical breakthrough, IFN 9 MU/TIW 6 months, Hepsera 10 mg/day 14 months
Procedure: HBV DNA levels were measured by using a commercial liquid-hybridization assay (Digene, Maryland, US), with the lower limit of detection of this assay being 5 pg/mL of viral DNA.
Lamuvidine was continued after the development of clinical breakthrough. […] Hepsera™ (Adefovir dipovoxil) 10 mg/day was added to lamivudine monotherapy at 44th month of initial antiviral therapy and 3 months after stopping IFN.
Blood counts and liver-function tests (alanine and aspartate aminotransferases) were done according to routine biochemical procedures (Olympus AU 2700 autoanalyzer, Japan).

[5] = 0.1 μM antiviral, 3 independent experiments
[6] = 1 μM antiviral, 3 independent experiments

Structure (SMILES) | HBV DNA levels following lamivudine treatment (HBV [1]) | HBV replication in transiently transfected Huh7 cell lines (Mean log HBV copy number ± standard deviation) (wild type HBV; [5]) [log HBV copy number] | HBV replication in transiently transfected Huh7 cell lines (Mean log HBV copy number ± standard deviation) (wild type HBV; [6]) [log HBV copy number] | HBV replication in transiently transfected Huh7 cell lines (Mean log HBV copy number ± standard deviation) (wild type HBV; 10 μM antiviral, n.d. = not detectable) | Patients not achieving a significant reduction in HBV DNA levels (HBV [2]) | Adefovir treated patients revealing the resistance mutation rtN236T (HBV [3]) | ALT and HBV replication response when added to ongoing lamivudine (in words) (HBV [4]) | ALT and HBV replication response when added to ongoing lamivudine (in words) (HBV [4]; listed as Hepsera™)
Nc1ccn([C@@H]2CS[C@H](CO)O2)c(=O)n1 [3TC, β-L-(−)-2′,3′-dideoxy-3′-thiacytidine] | less than 5 pg/mL | 4.1 ± 0.8 | 2.32 ± 1.62 |  |  |  |  | 
Nc1ncnc2c1ncn2CCOCP(=O)(O)O [Adefovir, 9-(2-phosphonyl-methoxyethyl)-adenine] |  | 1.15 ± 1.62 | 0.32 ± 0.58 | no detectable HBV DNA | 8-15% | 1.7-2.5% |  | 
CC(C)(C)C(=O)OCOP(=O)(COCCn1cnc2c(N)ncnc21)OCOC(=O)C(C)(C)C [adefovir dipivoxil] |  |  |  |  |  |  | neither suppressed HBV replication nor decreased serum ALT levels | neither inhibition of HBV replication nor ALT normalization occurred; also recorded: did not lead to inhibition of HBV replication and ALT normalisation
